Results published in US7045324B2, “Tocopherol associated protein and uses thereof” (Research Development Foundation, priority 2002, dated 2006).

Columns and labels:
[1] = tested on: tumor cells, normal cells, cells of epithelial or immune origin; conditions: cited from earlier work
[2] = tested on: MDA-MB-435 human breast cancer cells; assay: Apoptosis (DAPI staining) of TAP siRNA transfected MDA-MB-435 cells treated with tocopherol-based compounds; type: cell-based; conditions: TAP siRNA for 6 days, then compound for 2 days (α-TEA 20 μg/ml, VES 20 μg/ml, δT3 5 μg/ml)
Experimental: MDA-MD-435 cells at 13.5×10^6/55 cm^2 cell culture dish (100 mm×20 mm; catalog # 430293, Corning Inc., Corning, N.Y.) were transiently transfected with in vitro transcribed TAP siRNA (Silencer siRNA Construction Kit, Ambion) using siPORT Lipid following company instructions (catalog # 4505, Ambion, Austin, Tex.). Cells were incubated overnight in culture media, then washed two times with non-supplemented regular MEM media. Next, the cells were incubated overnight in the presence of siRNA/siPORT Lipid [[…]/16 μl or 16 μl siPORT lipid only (as control)] in 5 ml of serum free media (OPTI-MEMI, catalog # 31985–070, Gibco). SiRNA/siPORT Lipid complex was generated by two steps: 1) 16 μl of siPORT lipid was incubated with 60 μl of OPTI-MEMI media for 30 minutes at room temperature; and 2) 60 μl of siPORT Lipid in OPTI-MEMI was then incubated for 20 minutes with 500 μl of diluted TAP siRNA [or 500 μl media as control (5 μl of 10 μl TAP siRNA in 500 μl of OPTI-MEMI media)]. The transfected cells were then split into 12 wells at 1.5×10^5 cells/well for apoptosis and 55 cm^2 dish at 3.5×10^6 cells/dish for Western immunoblot analyses.
The cells in 55 cm^2 dishes were incubated for 8 hours with culture media followed by treatment with 20 μg/ml of α-TEA in 2% serum treatment media for 15 hours. Cells were collected and fractionated, and the lysates were analyzed for TAP protein levels by Western immunoblotting (FIG. 13A). The cells plated in 12-well plates were incubated overnight in culture media followed by treatment with 20 μg/ml of α-TEA, 20 μg/ml of VES, and 5 μg/ml of RRR-δ-tocotrienol (dt3) and cultured for 2 days. Apoptosis was evaluated by DAPI staining (FIG. 13B).
For example, cells transiently transfected with TAP siRNA for 6 days and then treated with α-TEA, VES, or δT3 were inhibited from induction of apoptosis by approximately 60% in comparison to control cells cultured with the three compounds for two days.

MDA-MB-435 cells [3] = assay: Apoptosis (nuclear condensation and fragmentation) of MDA-MB-435 cells transfected with antisense oligomers to TAP; type: cell-based, human; conditions: antisense to N-terminal region of TAP (TAP-38 and TAP-46)
Experimental: Apoptosis was determined by examination of nuclear condensation and fragmentation.
Transient transfection of MDA-MB-435 cells with antisense oligomers to the N-terminal region of TAP (interferes with TAP-38 as well as TAP-46 transcription) blocked the ability of tocopherol compounds, vitamin E succinate and compound #1, to induce apoptosis, showing that TAP-38 and TAP-46 are involved in the ability of vitamin E compounds to inhibit tumor cell growth (FIG. 10).

MDA-MB-435 cells [4] = assay: PARP cleavage and c-Jun phosphorylation in MDA-MB-435 cells transfected with antisense or sense oligomers to TAP; type: cell-based, human
Text: Antisense oligomers to TAP (both TAP-38 and TAP-46), showing that the induction of apoptosis with vitamin E succinate or compound #1 [2,5,7,8-tetramethyl-(2R-(4R,8R,12-trimethyltridecycl) chroman-6-yloxy) acetic acid] to involve tocopherol associated protein.

[5] = tested on: MDA-MB-435 human breast cancer cells; assay: Apoptosis of MDA-MB-435 cells transiently transfected with TAP-38 or TAP-46 cDNA and treated with compound; type: cell-based; conditions: 20 micrograms/ml compound
Text: Transient transfection of MDA-MB-435 human breast cancer cells with either TAP-38 or TAP-46 enhanced the ability of tocopherol compound #1 [2,5,7,8-tetramethyl-(2R-(4R,8R,12-trimethyltridecycl) chroman-6-yloxy) acetic acid] to induce apoptosis (FIG. 9).

Structure (SMILES)	inhibition of induction of apoptosis by TAP siRNA in comparison to control cells [2]	ability to induce apoptosis in cells transfected with antisense oligomers to TAP, vs sense oligomers (MDA-MB-435 cells [3])	cleavage of poly ADP-ribose polymerase (PARP) in compound-treated cells with antisense vs sense oligomers to TAP (MDA-MB-435 cells [4])	phosphorylation of c-Jun in compound-treated cells with antisense vs sense oligomers to TAP (MDA-MB-435 cells [4])	other results
Cc1c(C)c2c(c(C)c1O)CC[C@@](C)(CCC[C@H](C)CCC[C@H](C)CCCC(C)C)O2 [RRR-α-tocopherol]	–	–	–	–	antiproliferative and proapoptotic activity ([1]; cells of epithelial or immune origin): neither antiproliferative nor proapoptotic biological activity
Cc1c(C)c2c(c(C)c1OC(=O)CCC(=O)O)CC[C@@](C)(CCC[C@H](C)CCC[C@H](C)CCCC(C)C)O2 [VES, RRR-α-tocopheryl succinate]	approximately 60%	blocked	blocked the cleavage	inhibited the phosphorylation	apoptotic inducing effects on normal cells ([1]; normal cells): no apoptotic inducing effects on normal cells; apoptosis of tumor cells ([1]; tumor cells): induces tumor cells to undergo apoptosis
Cc1c(C)c2c(c(C)c1OCC(=O)O)CC[C@@](C)(CCC[C@H](C)CCC[C@H](C)CCCC(C)C)O2 [compound #1, 2,5,7,8-tetramethyl-(2R-(4R,8R,12-trimethyltridecycl)chroman-6-yloxy) acetic acid]	–	blocked	blocked the cleavage	inhibited the phosphorylation	ability to induce apoptosis in cells transfected with either TAP-38 or TAP-46, vs vector control [5]: enhanced
Cc1c(C)c2c(c(C)c1OCC(=O)O)CC[C@@](C)(CCC[C@H](C)CCC[C@H](C)CCCC(C)C)O2 [α-TEA]	approximately 60%	–	–	–	–
CC(C)=CCC/C(C)=C/CC/C(C)=C/CC[C@]1(C)CCc2cc(O)cc(C)c2O1 [δT3, RRR-δ-tocotrienol]	approximately 60%	–	–	–	–
